This assay deals with ALK2 (Homo sapiens (Human), UniProt Q04771). Put plainly: ALK2 inhibition, LanthaScreen Eu Kinase Binding Assay (ThermoFisher Scientific / Life Technologies). To be noted: read-out: Measured Ki (IC50) Value for Compounds: IC50. As to the method:
Biochemical assays to measure the inhibitory effects of the compounds were performed by ThermoFisher Scientific (Life Technologies). ALK2 inhibition was tested using LanthaScreen™ Eu Kinase Binding Assay screening protocol.
For orientation: TR-FRET usually uses a lanthanide donor and a delayed reading to cut background.

Sequence of ALK2 (Q04771 21-509): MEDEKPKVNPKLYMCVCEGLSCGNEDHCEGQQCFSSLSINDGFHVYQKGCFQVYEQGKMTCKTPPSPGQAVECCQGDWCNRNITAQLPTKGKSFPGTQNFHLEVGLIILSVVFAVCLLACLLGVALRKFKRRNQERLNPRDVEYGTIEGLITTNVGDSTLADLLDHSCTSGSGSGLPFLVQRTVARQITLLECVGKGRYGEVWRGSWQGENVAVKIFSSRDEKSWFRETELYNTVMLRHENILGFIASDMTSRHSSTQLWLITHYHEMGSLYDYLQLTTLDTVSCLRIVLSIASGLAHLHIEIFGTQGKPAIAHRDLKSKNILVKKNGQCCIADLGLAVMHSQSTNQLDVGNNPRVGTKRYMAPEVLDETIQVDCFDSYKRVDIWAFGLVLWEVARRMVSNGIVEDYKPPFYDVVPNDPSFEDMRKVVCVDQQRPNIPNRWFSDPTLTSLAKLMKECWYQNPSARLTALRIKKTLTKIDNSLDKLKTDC

Turning to `Cn1cnc(Nc2nc(N3CCCC3c3ccncc3)nn3cccc23)c1` (stereo not shown) [Compound 20a, N-(1-methyl-1H-imidazol-4-yl)-2-(2-(pyridin-4-yl)pyrrolidin-1-yl)pyrrolo[2,1-f][1,2,4]triazin-4-amine], the IC50 (as a rule, the concentration at which inhibition is half-maximal) was in the range of 100 to 1000 nM. Then `COc1cc(-n2cnc(Nc3nc(N4CCC[C@H]4CO)c4ccc(-c5cccc(NC(C)=O)c5)cc4n3)c2)cc(OC)c1OC` [Compound 364b, (S)—N-(3-(4-(2-(hydroxymethyl)pyrrolidin-1-yl)-2-((1-(3,4,5-trimethoxyphenyl)-1H-imidazol-4-yl)amino)quinazolin-7-yl)phenyl)acetamide], with less than 100 nM; and `N#CC1CC(n2cnc(Nc3nc(N4CCC[C@H]4CO)nn4cccc34)c2)C1` (stereo partly drawn) [Compound 68a, (S)-3-(4-((2-(2-(hydroxymethyl)pyrrolidin-1-yl)pyrrolo[2,1-f][1,2,4]triazin-4-yl)amino)-1H-imidazol-1-yl)cyclobutanecarbonitrile], with less than 100 nM. For the compound `COc1cc(-n2cnc(Nc3nc(N4CC[C@@H](O)C4)nc4ccoc34)c2)cc(OC)c1OC` [Compound 236a, (R)-1-(4-((1-(3,4,5-trimethoxyphenyl)-1H-imidazol-4-yl)amino)furo[3,2-d]pyrimidin-2-yl)pyrrolidin-3-ol], the half-inhibitory concentration (IC50) is less than 100 nM. Consider `COc1cc(-n2cnc(Nc3nc(N4CCC[C@@H]4C(N)=O)nc4cc(C(F)(F)F)ccc34)c2)cc(OC)c1OC` [Compound 287a, (R)-1-(7-(trifluoromethyl)-4-((1-(3,4,5-trimethoxyphenyl)-1H-imidazol-4-yl)amino)quinazolin-2-yl)pyrrolidine-2-carboxamide], for which the IC50 is less than 100 nM.

On to `COC(=O)c1cc(-n2cnc(Nc3nc(N4CCC[C@H]4CO)c4cccn4n3)c2)cc(OC)c1OC` [Compound 355a, (S)-methyl 5-(4-((4-(2-(hydroxymethyl)pyrrolidin-1-yl)pyrrolo[2,1-f][1,2,4]triazin-2-yl)amino)-1H-imidazol-1-yl)-2,3-dimethoxybenzoate], for which the IC50 is less than 100 nM.

As for `COc1cc(-n2cnc(Nc3nc(N4CCC[C@H]4C(N)=O)nc4c3ccn4S(=O)(=O)c3ccc(C)cc3)c2)cc(OC)c1OC` [Compound 142a, (S)-1-(7-tosyl-4-((1-(3,4,5-trimethoxyphenyl)-1H-imidazol-4-yl)amino)-7H-pyrrolo[2,3-d]pyrimidin-2-yl)pyrrolidine-2-carboxamide], the IC50 is less than 100 nM. Under `OC[C@@H]1CCCN1c1nc(Nc2cn(C3CCCCC3)cn2)c2cccn2n1` [Compound 28c, (S)-(1-(4-((1-cyclohexyl-1H-imidazol-4-yl)amino)pyrrolo[2,1-f][1,2,4]triazin-2-yl)pyrrolidin-2-yl)methanol] stands 100 to 1000 nM. On to `OCc1cccc(-n2cnc(Nc3nc(N4CCC[C@H]4CO)nn4cccc34)c2)c1` [Compound 434e, (S)-(1-(4-((1-(3-(hydroxymethyl)phenyl)-1H-imidazol-4-yl)amino)pyrrolo[2,1-f][1,2,4]triazin-2-yl)pyrrolidin-2-yl)methanol], for which the concentration for half-maximal inhibition (IC50) is less than 100 nM. Then `COc1cc(-n2cnc(Nc3nc(N4CCC[C@H]4CO)nc4[nH]ccc34)c2)cc(OC)c1OC` [Compound 141d, (S)-(1-(4-((1-(3,4,5-trimethoxyphenyl)-1H-imidazol-4-yl)amino)-7H-pyrrolo[2,3-d]pyrimidin-2-yl)pyrrolidin-2-yl)methanol], with less than 100 nM; and `COc1cc(-n2cnc(Nc3nc(N4CCC[C@H]4C(N)=O)c4cc[nH]c4n3)c2)cc(OC)c1OC` [Compound 173c, (S)-1-(2-((1-(3,4,5-trimethoxyphenyl)-1H-imidazol-4-yl)amino)-7H-pyrrolo[2,3-d]pyrimidin-4-yl)pyrrolidine-2-carboxamide], with less than 100 nM; and `COc1cc(-n2cnc(Nc3nc(N4CCC[C@H]4CO)c4c(C)nn(C)c4n3)c2)cc(OC)c1OC` [Compound 377b, (S)-(1-(1,3-dimethyl-6-((1-(3,4,5-trimethoxyphenyl)-1H-imidazol-4-yl)amino)-1H-pyrazolo[3,4-d]pyrimidin-4-yl)pyrrolidin-2-yl)methanol], with less than 100 nM. Then `COc1cc(-n2cnc(Nc3nc(N4CCC[C@H]4C(N)=O)nc4ncccc34)c2)cc(OC)c1OC` [Compound 170a, (S)-1-(4-((1-(3,4,5-trimethoxyphenyl)-1H-imidazol-4-yl)amino)pyrido[2,3-d]pyrimidin-2-yl)pyrrolidine-2-carboxamide], with less than 100 nM; and `OC[C@@H]1CCCN1c1nc(Nc2cn([C@H]3CC[C@H](CO)CC3)cn2)c2cccn2n1` [Compound 474e, ((S)-1-(4-((1-((trans)-4-(hydroxymethyl)cyclohexyl)-1H-imidazol-4-yl)amino)pyrrolo[2,1-f][1,2,4]triazin-2-yl)pyrrolidin-2-yl)methanol], with less than 100 nM; and `C[C@H](Nc1nc(Nc2cn(C)cn2)c2ccccc2n1)c1ccccc1` [Compound 21c, (S)—N4-(1-methyl-1H-imidazol-4-yl)-N2-(1-phenylethyl)quinazoline-2,4-diamine], with less than 100 nM. Then `COc1cncc(-n2cnc(Nc3nc(N4CCC[C@H]4CO)c4cccn4n3)c2)c1` [Compound 228d, (S)-(1-(2-((1-(5-methoxypyridin-3-yl)-1H-imidazol-4-yl)amino)pyrrolo[2,1-f][1,2,4]triazin-4-yl)pyrrolidin-2-yl)methanol], with 100 to 1000 nM. As to `c1ccc(C2CCCN2c2nc(Nc3cn(-c4ccccc4)cn3)c3occc3n2)cc1` (stereo not shown) [Compound 40a, N-(1-phenyl-1H-imidazol-4-yl)-2-(2-phenylpyrrolidin-1-yl)furo[3,2-d]pyrimidin-4-amine], the IC50 is less than 100 nM.

Consider `C[C@H](Nc1nc(Nc2cn(-c3ccccc3)cn2)c2ccccc2n1)c1ccccc1` [Compound 24b, (S)—N4-(1-phenyl-1H-imidazol-4-yl)-N2-(1-phenylethyl)quinazoline-2,4-diamine], for which the IC50 was 100 to 1000 nM.

On to `OC[C@@H]1CCCN1c1nc(Nc2cn(-c3ccc4c(c3)OC(F)(F)O4)cn2)c2cccn2n1` [Compound 433b, (S)-(1-(4-((1-(2,2-difluorobenzo[d][1,3]dioxol-5-yl)-1H-imidazol-4-yl)amino)pyrrolo[2,1-f][1,2,4]triazin-2-yl)pyrrolidin-2-yl)methanol], for which the half-maximal inhibitory concentration (IC50) lay within 100 to 1000 nM.

Regarding `COc1ccc(-c2ccc3c(Nc4cn(-c5cc(OC)c(OC)c(OC)c5)cn4)nc(N4CCC[C@H]4CO)nn23)cc1` [Compound 90a, (S)-(1-(7-(4-methoxyphenyl)-4-(1-(3,4,5-trimethoxyphenyl)-1H-imidazol-4-ylamino)pyrrolo[1,2-f][1,2,4]triazin-2-yl)pyrrolidin-2-yl)methanol], the IC50 is less than 100 nM. Then `COc1cc(-n2cnc(Nc3nc(N4CCC[C@H]4CO)nc4cc(Br)ccc34)c2)cc(OC)c1OC` [Compound 344c, (S)-(1-(7-bromo-4-((1-(3,4,5-trimethoxyphenyl)-1H-imidazol-4-yl)amino)quinazolin-2-yl)pyrrolidin-2-yl)methanol], with less than 100 nM; and `CCOc1ccc(-n2cnc(Nc3nc(N4CCC[C@H]4CO)nn4cccc34)c2)cc1OCC` [Compound 319b, (S)-(1-(4-((1-(3,4-diethoxyphenyl)-1H-imidazol-4-yl)amino)pyrrolo[2,1-f][1,2,4]triazin-2-yl)pyrrolidin-2-yl)methanol], with 100 to 1000 nM. Under `COc1cc(-n2cnc(Nc3nc(N4CCC[C@@H]4C(N)=O)nc4c3CCCC4)c2)cc(OC)c1OC` [Compound 313a, (R)-1-(4-((1-(3,4,5-trimethoxyphenyl)-1H-imidazol-4-yl)amino)-5,6,7,8-tetrahydroquinazolin-2-yl)pyrrolidine-2-carboxamide] stands less than 100 nM. Then `OC[C@@H]1CCCN1c1nc(Nc2cn(-c3cccc4c3OCO4)cn2)c2cccn2n1` [Compound 424e, (S)-(1-(4-((1-(benzo[d][1,3]dioxol-4-yl)-1H-imidazol-4-yl)amino)pyrrolo[2,1-f][1,2,4]triazin-2-yl)pyrrolidin-2-yl)methanol], with less than 100 nM; and `COc1cc(-n2cnc(Nc3nc(N4CCC[C@H]4CO)nc4scnc34)c2)cc(OC)c1OC` [Compound 164a, (S)-(1-(7-((1-(3,4,5-trimethoxyphenyl)-1H-imidazol-4-yl)amino)thiazolo[5,4-d]pyrimidin-5-yl)pyrrolidin-2-yl)methanol], with less than 100 nM; and `Cn1cnc(Nc2nc(Cl)nn3cccc23)c1` [Compound 4b, 2-chloro-N-(1-methyl-1H-imidazol-4-yl)pyrrolo[2,1-f][1,2,4]triazin-4-amine], with greater than 1000 nM. On to `N#CC1CC(n2cnc(Nc3nc(N4CCCC4c4ccccn4)nn4cccc34)c2)C1` (stereo not shown) [Compound 59c, 3-(4-((2-(2-(pyridin-2-yl)pyrrolidin-1-yl)pyrrolo[2,1-f][1,2,4]triazin-4-yl)amino)-1H-imidazol-1-yl)cyclobutanecarbonitrile], for which the IC50 is 100 to 1000 nM. `COc1cc(-n2cnc(Nc3nc(N4CCC[C@H]4CO)nc4cc(CN5CCCC5)ccc34)c2)cc(OC)c1OC` [Compound 399f, (S)-(1-(7-(pyrrolidin-1-ylmethyl)-4-((1-(3,4,5-trimethoxyphenyl)-1H-imidazol-4-yl)amino)quinazolin-2-yl)pyrrolidin-2-yl)methanol]: the IC50 was less than 100 nM.

On to `COc1cc(OC)cc(-n2cnc(Nc3nc(N4CCC[C@H]4CO)c4cccn4n3)c2)c1` [Compound 242a, (S)-(1-(2-((1-(3,5-dimethoxyphenyl)-1H-imidazol-4-yl)amino)pyrrolo[2,1-f][1,2,4]triazin-4-yl)pyrrolidin-2-yl)methanol], for which the IC50 fell in the range of 100 to 1000 nM. Regarding `COc1cc(-n2cnc(Nc3nc(N4CCC[C@H]4CO)nn4cccc34)c2)cc(C(N)=O)c1O` [Compound 268b, (S)-2-hydroxy-5-(4-((2-(2-(hydroxymethyl)pyrrolidin-1-yl)pyrrolo[2,1-f][1,2,4]triazin-4-yl)amino)-1H-imidazol-1-yl)-3-methoxybenzamide], the IC50 is less than 100 nM. Then `COc1cc(-n2cnc(Nc3nc(N4CCC[C@@H]4C(N)=O)nc4cc(OC(C)C)ccc34)c2)cc(OC)c1OC` [Compound 277a, (R)-1-(7-isopropoxy-4-((1-(3,4,5-trimethoxyphenyl)-1H-imidazol-4-yl)amino)quinazolin-2-yl)pyrrolidine-2-carboxamide], with less than 100 nM.

(Values after patent publication US11661426B2, “Imidazole-containing inhibitors of ALK2 kinase” (BioCryst Pharmaceuticals, Inc., priority 2017, dated 2023).)
